The results in this text go back to BindingDB's records for patent US20250026750 (Chia Tai Tianqing Pharmaceutical Group, 2025).

The term pIC50 denotes the negative decadic logarithm of the IC50, by convention in mol/L.

pIC50: −log10 of the molar value.

Chain of Serine/threonine-protein kinase ATR (Q13535 whole entry): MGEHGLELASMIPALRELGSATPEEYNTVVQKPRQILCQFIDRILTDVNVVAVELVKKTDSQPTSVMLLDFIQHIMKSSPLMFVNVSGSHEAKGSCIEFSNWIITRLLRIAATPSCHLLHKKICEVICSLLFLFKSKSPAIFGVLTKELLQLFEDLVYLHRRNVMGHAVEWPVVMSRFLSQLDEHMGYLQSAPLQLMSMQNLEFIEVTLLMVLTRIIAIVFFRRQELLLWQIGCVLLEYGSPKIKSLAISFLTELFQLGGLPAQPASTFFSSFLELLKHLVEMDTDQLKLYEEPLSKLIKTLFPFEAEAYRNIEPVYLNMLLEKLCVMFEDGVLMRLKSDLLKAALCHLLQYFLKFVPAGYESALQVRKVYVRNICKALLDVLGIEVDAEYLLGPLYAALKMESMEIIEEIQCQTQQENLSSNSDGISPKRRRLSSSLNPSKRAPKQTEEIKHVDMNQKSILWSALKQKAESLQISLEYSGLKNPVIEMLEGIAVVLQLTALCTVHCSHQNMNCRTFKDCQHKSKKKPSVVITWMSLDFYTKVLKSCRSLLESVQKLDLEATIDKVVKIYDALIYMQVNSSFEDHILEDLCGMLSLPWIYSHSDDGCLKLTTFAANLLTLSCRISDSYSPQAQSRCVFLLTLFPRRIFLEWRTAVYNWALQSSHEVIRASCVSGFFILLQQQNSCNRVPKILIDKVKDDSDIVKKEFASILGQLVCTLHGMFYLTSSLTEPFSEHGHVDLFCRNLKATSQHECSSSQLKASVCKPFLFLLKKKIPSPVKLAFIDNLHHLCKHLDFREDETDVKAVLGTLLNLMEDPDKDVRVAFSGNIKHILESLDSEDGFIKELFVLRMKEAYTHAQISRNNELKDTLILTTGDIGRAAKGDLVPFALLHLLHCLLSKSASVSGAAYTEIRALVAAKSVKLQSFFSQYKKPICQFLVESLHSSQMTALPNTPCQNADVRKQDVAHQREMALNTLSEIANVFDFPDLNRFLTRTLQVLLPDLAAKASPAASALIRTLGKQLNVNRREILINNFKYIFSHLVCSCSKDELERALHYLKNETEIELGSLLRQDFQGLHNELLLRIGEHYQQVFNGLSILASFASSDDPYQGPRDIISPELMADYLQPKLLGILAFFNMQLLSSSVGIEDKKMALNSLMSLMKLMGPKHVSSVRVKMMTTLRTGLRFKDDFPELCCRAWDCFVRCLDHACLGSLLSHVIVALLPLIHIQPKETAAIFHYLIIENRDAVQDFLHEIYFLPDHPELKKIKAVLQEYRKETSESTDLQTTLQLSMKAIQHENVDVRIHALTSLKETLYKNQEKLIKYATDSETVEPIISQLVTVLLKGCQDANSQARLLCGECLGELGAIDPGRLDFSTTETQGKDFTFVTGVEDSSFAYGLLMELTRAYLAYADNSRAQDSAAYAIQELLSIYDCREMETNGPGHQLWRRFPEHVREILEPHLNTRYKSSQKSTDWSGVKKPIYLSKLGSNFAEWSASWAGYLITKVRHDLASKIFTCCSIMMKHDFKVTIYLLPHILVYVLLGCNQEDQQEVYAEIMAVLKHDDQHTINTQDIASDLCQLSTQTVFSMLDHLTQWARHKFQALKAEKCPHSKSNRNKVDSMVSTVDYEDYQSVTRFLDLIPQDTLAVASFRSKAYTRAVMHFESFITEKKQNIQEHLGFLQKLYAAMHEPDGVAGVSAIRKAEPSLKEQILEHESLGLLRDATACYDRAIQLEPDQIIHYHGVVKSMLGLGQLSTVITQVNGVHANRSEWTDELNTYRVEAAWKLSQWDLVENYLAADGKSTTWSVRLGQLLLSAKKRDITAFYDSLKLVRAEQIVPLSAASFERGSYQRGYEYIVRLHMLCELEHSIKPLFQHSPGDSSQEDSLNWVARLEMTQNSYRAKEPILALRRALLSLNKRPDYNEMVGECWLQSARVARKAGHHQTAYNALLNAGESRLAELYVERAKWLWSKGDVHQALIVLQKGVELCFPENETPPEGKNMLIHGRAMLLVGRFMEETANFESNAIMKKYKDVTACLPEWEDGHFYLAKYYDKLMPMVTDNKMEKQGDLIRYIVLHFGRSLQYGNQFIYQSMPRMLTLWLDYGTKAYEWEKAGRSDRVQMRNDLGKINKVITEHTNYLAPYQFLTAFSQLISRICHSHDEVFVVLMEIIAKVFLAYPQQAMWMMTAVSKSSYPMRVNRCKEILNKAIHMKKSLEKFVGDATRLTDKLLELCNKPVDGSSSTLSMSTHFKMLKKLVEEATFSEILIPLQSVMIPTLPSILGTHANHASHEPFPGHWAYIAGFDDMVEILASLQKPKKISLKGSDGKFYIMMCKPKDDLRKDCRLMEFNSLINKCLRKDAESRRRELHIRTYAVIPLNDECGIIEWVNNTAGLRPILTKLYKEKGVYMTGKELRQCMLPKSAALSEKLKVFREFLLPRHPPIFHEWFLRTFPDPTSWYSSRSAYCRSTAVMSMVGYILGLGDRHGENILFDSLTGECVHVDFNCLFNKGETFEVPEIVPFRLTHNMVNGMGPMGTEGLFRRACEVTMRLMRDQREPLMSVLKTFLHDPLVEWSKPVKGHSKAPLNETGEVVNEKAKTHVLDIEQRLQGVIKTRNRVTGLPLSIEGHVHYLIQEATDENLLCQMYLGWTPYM

The assay has as its target Serine/threonine-protein kinase ATR (Homo sapiens, UniProt Q13535). Description: In Vitro Inhibitory Activity Against ATR Kinase. The procedure:
A 50 ng/μL ATR stock solution was diluted with a kinase buffer (50 mM HEPES, 10 mM MgCl2, 2 mM DTT, 1 mM EGTA, 0.01% Tween 20), and 6 μL of 1.67×, 0.0835 ng/μL working solution was added to each well (final concentration: 0.05 ng/μL). Different compounds dissolved in DMSO were added to wells using a nanoliter pipettor, such that the final concentrations of the compounds were 1000 nM-0.24 nM and the concentrations in positive wells were 100 nM-0.024 nM (4-fold gradient, 7 concentrations in total). Meanwhile, a blank control well (containing no enzyme) and a negative control well (containing enzyme, with the vehicle DMSO added) were set. After the enzyme had reacted with the compound or vehicle for 30 min, a 5×, 50 μM ATP (final concentration: 10 μM) prepared with the kinase buffer and a 5×, 0.5 μM substrate (final concentration: 0.1 μM, U Light-poly GT) were 1:1 mixed, and the mixture was added to wells at 4 μL/well. After the plate was sealed with a sealing film and the plate was incubated at room temperature for 2 h, 5 μL of 4×, 40 mM EDTA (final concentration: 10 mM) was added to each well. After 5 min of incubation at room temperature, 5 μL of a 4×, 8 nM assay reagent (final concentration: 2 nM, Ep-anti-phospho-tyrosine antibody) was added to each well. The plate was incubated at room temperature for 1 h. Plate reading was performed on a PE instrument (excitation: 320 or 340 nm; emission: 665 nm), and four-parameter fitting and IC50 calculations were performed.
As for `Cc1nn(-c2ccn[nH]2)c2nc(N3CCOC[C@H]3C)cc(N=S(C)(C)=O)c12` [US20250026750, Compound 20], the pIC50 was above 7.30.

In turn, `C[C@@H]1COCCN1c1cc(N=S(C)(C)=O)c2cnn(-c3ccn[nH]3)c2n1` [US20250026750, Compound 1] had a negative logarithm of the IC50 (pIC50) above 7.30.

Regarding `C[C@@H]1COCCN1c1cc(N=S2(=O)CCC2)c2cnn(-c3ccn[nH]3)c2n1` [US20250026750, Compound 3], the negative-log IC50 (pIC50) was above 7.30.

`C[C@@H]1COCCN1c1cc(N=S(C)(C)=O)c2c(C(C)(C)C)nn(-c3cc[nH]n3)c2n1` [US20250026750, Compound 25] gave a pIC50 above 7.30.

On to `C[C@@H]1COCCN1c1cc(N=S2(=O)CCOCC2)c2cnn(-c3ccn[nH]3)c2n1` [US20250026750, Compound 6], for which the negative logarithm of the IC50 (pIC50) was above 7.30.

The compound `C[C@@H]1COCCN1c1cc(N=S(C)(=O)C(C)(C)C)c2cnn(-c3ccn[nH]3)c2n1` (some centres undefined) [US20250026750, Compound 17] had a pIC50 above 7.30.

`C[C@@H]1COCCN1c1cc(N=S(C)(C)=O)c2c(CCC(F)(F)F)nn(-c3ccn[nH]3)c2n1` [US20250026750, Compound 24]: the negative-log IC50 (pIC50) is above 7.30.

`C[C@@H]1COCCN1c1cc(N=S(C)(C)=O)c2c(C(F)(F)F)nn(-c3ccn[nH]3)c2n1` [US20250026750, Compound 23] showed a negative-log IC50 (pIC50) above 7.30.

In the case of `C[C@@H]1COCCN1c1cc(N=S2(=O)CCCC2)c2cnn(-c3ccn[nH]3)c2n1` [US20250026750, Compound 4], the pIC50 is above 7.30.
